Assay results from paper PMC2909451 (European journal of pharmaceutical sciences : official …, 2010).
Where a name gives a salt, the structure may show the parent alone. Values belong to the compound of their own block, whether it stands above or below them.

How the values were obtained:
[1] = molecular target: T1, excitatory amino acid transporters (SLC1A6, EAAT4) (Rattus norvegicus, UniProt O35921); experiment: EAAT4 cis-inhibition of glutamate uptake in stably transfected HEK 293 cells; assay type: cell-based; details: for potency estimated from few doses: HEK293, read-out: Ki estimated from one concentration
T1 sequence (O35921 1-561): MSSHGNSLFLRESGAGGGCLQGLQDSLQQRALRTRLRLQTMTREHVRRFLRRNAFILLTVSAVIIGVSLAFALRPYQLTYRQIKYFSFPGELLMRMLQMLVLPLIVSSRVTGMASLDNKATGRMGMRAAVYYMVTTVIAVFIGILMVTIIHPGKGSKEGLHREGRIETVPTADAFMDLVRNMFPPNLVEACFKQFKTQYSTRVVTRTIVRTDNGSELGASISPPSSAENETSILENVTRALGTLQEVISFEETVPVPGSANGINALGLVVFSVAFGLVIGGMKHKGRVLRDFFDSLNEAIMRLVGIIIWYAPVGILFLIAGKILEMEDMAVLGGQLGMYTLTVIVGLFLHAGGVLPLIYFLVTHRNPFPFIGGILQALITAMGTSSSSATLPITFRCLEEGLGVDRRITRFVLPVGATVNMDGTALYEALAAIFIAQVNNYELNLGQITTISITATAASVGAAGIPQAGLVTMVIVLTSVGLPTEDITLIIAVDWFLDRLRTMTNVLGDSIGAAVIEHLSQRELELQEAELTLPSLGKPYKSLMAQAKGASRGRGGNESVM

[2] = molecular target: T2, human organic cation/carnitine transporter (SLC22A5, OCTN2) (Homo sapiens, UniProt O76082); experiment: OCTN2 cis-inhibition of L-carnitine uptake in OCTN2-MDCK cells; assay type: cell-based; details: for potency estimated from few doses: read-out: Ki estimated from one concentration
T2 sequence (O76082 1-557): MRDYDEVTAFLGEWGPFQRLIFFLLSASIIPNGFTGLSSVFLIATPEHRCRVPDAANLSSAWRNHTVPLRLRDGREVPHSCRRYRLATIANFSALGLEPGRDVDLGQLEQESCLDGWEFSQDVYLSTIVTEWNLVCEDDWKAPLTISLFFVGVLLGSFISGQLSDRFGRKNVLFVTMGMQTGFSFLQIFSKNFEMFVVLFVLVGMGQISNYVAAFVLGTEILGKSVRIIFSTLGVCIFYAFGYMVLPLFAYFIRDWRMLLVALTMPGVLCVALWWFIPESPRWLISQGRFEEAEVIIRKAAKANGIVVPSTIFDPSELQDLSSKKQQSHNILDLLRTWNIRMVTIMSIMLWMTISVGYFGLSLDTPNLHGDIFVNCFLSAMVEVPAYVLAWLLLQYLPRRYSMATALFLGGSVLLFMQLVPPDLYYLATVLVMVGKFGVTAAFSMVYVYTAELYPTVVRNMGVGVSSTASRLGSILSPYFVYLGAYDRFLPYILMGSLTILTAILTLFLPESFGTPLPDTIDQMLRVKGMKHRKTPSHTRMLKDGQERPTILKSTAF

[3] = molecular target: T3, OCTN2 (Homo sapiens, UniProt O76082); experiment: L-carnitine uptake study; assay type: cell-based; details: substrate uptake studies
T3 sequence (O76082 1-557): T2 sequence (O76082 1-557)

[4] = molecular target: EAAT4 (Rattus norvegicus, UniProt O35921); details: substrate uptake studies
[5] = molecular target: T4, human apical sodium-dependent transporter (SLC10A2, ASBT) (Homo sapiens, UniProt Q12908); experiment: ASBT cis-inhibition of taurocholate uptake in ASBT-MDCK cells; details: for Ki: mean±S.E.
T4 sequence (Q12908 1-348): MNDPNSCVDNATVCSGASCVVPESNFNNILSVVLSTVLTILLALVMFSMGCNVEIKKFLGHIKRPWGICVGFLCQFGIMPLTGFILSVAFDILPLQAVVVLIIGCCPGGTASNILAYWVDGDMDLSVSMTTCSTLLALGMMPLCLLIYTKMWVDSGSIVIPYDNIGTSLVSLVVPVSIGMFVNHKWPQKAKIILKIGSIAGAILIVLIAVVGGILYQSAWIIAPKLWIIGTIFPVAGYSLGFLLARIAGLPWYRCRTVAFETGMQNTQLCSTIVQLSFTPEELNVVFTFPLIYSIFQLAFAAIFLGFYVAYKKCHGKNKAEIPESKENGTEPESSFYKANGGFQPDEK

[6] = Precipitation / solubility of inhibitor in transport buffer; assay type: physicochemical; details: for precipitation / solubility in donor solution: ASBT inhibition study, 1-[…] DMSO for low water soluble compounds; for highest concentration at which no precipitation was observed: transport buffer of the ASBT inhibition study, precipitation observed above it
[7] = molecular target: T4, human apical sodium-dependent transporter (SLC10A2, ASBT); details: 50 µM
[8] = molecular target: ASBT (Homo sapiens, UniProt Q12908); details: substrate uptake studies
[9] = Ki, inhibitor concentration range 0-5 μM
[10] = Ki, inhibitor concentration range 0-10 μM
[11] = Ki, inhibitor concentration range 0-20 μM
[12] = Ki, inhibitor concentration range 0-50 μM
[13] = Ki, inhibitor concentration range 0-100 μM
[14] = Ki, inhibitor concentration range 0-200 μM
[15] = Reference Ki, from the comprehensive inhibition profile
[16] = Ki, inhibitor concentration range 0-[…]
[17] = Ki, inhibitor concentration range 0-500 μM

SMILES: N[C@H](CC(=O)O)C(=O)O [D-Aspartic acid]
potency estimated from few doses [1]: 8.4 ± 0.81 µM | Ki [1, 9]: 9.06 ± 1.51 µM | Ki [1, 10]: 8.72 ± 0.76 µM | Ki [1, 11]: 8.58 ± 0.59 µM | Ki [1, 12]: 8.95 ± 0.57 µM | Ki [1, 13]: 9.21 ± 0.57 µM | Ki [1, 14]: 9.54 ± 0.75 µM | Ki [1, 15]: 9.54 µM

SMILES: COc1cccc2c1C(=O)c1c(O)c3c(c(O)c1C2=O)C[C@@](O)(C(C)=O)C[C@@H]3O[C@H]1C[C@H](N)[C@H](O)[C@H](C)O1 [Daunorubicin hydrochloride, daunorubicin hydrochloride]
Ki [2, 13]: 424 ± 122 µM | Ki [2, 14]: 375 ± 63 µM | Ki [2, 17]: 443 ± 56 µM | Ki ([2]; Ki, inhibitor concentration range 0-1000 μM): 484 ± 48 µM | Ki ([2]; Ki, inhibitor concentration range 0-1500 μM): 496 ± 41 µM | Ki [2, 15]: 496 µM | potency estimated from few doses [2]: 488 ± 47 µM

SMILES: N[C@@H](CCC(=O)O)C(=O)O [glumatate, glutamate]
Kt (Michaelis-Menten constant for transporter mediated transport) [4]: 2.02 µM

SMILES: C[C@H](CCC(=O)NCCS(=O)(=O)O)[C@H]1CC[C@H]2[C@@H]3[C@H](O)C[C@@H]4C[C@H](O)CC[C@]4(C)[C@H]3C[C@H](O)[C@]12C [taurocholate]
Kt (Michaelis-Menten constant for transporter mediated transport) [8]: 5.03 µM

Further lines, with some results ahead:

Ki ([2]; Ki, inhibitor concentration range 0-1 μM): 8.9 ± 4 µM | Ki [2, 9]: 10.2 ± 1.1 µM | Ki [2, 10]: 11.5 ± 0.9 µM | Ki [2, 11]: 11.8 ± 0.7 µM | Ki [2, 12]: 12 ± 0.6 µM | Ki [2, 13]: 12.1 ± 0.5 µM | Ki [2, 14]: 12.2 ± 0.5 µM | Ki [2, 16]: 9 ± 1.5 µM | Ki [2, 15]: 12.2 µM | potency estimated from few doses [2]: 12.2 ± 0.5 µM
SMILES: C[N+](C)(C)C[C@@H](O)CC(=O)[O-] [D-carnitine]

potency estimated from few doses [1]: 3.03 ± 0.3 µM | Ki [1, 9]: 1.72 ± 0.14 µM | Ki [1, 10]: 1.77 ± 0.12 µM | Ki [1, 11]: 1.83 ± 0.14 µM | Ki [1, 12]: 1.88 ± 0.18 µM | Ki [1, 13]: 1.92 ± 0.23 µM | Ki [1, 16]: 2.01 ± 0.13 µM | Ki [1, 15]: 1.92 µM
SMILES: N[C@@H](CC(=O)O)C(=O)O [L-Aspartic acid]

Kt (Michaelis-Menten constant for transporter mediated transport) [3]: 5.33 µM
SMILES: C[N+](C)(C)C[C@H](O)CC(=O)[O-] [L-carnitine]

Ki [2, 10]: 14.9 ± 2 µM | Ki [2, 11]: 14.5 ± 1.2 µM | Ki [2, 12]: 14.6 ± 1.5 µM | Ki [2, 13]: 15.7 ± 1.6 µM | Ki [2, 14]: 15.9 ± 1.5 µM | Ki [2, 17]: 15.9 ± 1.4 µM | Ki [2, 15]: 15.9 µM | potency estimated from few doses [2]: 14.7 ± 3.1 µM
SMILES: CC[C@]1(O)C[C@H]2CN(CCc3c([nH]c4ccccc34)[C@@](C(=O)OC)(c3cc4c(cc3OC)N(C=O)[C@H]3[C@@](O)(C(=O)OC)[C@H](OC(C)=O)[C@]5(CC)C=CCN6CC[C@]43[C@@H]65)C2)C1 [Vincristine sulfate]

Ki ([5]; inhibitor concentration range 0-50 μM): 43.9 µM | highest concentration at which no precipitation was observed [6]: 50 µM | inhibition [7]: 39.7%
SMILES: CCOC(=O)C1=C(C)NC(C)=C(C(=O)OC)C1c1cccc([N+](=O)[O-])c1 (stereo not shown) [nitrendipine]
precipitation / solubility in donor solution [6]: incomplete solubility at higher drug concentrations

Ki ([5]; inhibitor concentration range 0-1000 μM): 460 µM | inhibition at 1000 µM ([5]; read-out: percent taurocholate inhibited at the highest inhibitor concentration): 58.4% | highest concentration at which no precipitation was observed [6]: 1000 µM
SMILES: Cc1cccc(Nc2ccncc2S(=O)(=O)NC(=O)NC(C)C)c1 [torsemide]
precipitation / solubility in donor solution [6]: incomplete solubility at higher drug concentrations
